# Measurements reported in US9879038B2, “Salt of tenofovir disoproxil” (JW Pharmaceutical Corporation, priority 2014, dated 2018).
# Entries after “also recorded” stand apart in the source; their conditions may differ.
# Key:
# Assay type in all cases: physicochemical
# [1] = Evaluation of stability depending on changes in pH; conditions: deionized water and pH 1.2, 4.0, 6.8 buffers, 30° C., HPLC, FIGS. 2 and 3
# Procedure: When a drug is orally administered, it is absorbed in vivo through the stomach, duodenum, small intestine, etc. […] In the present invention, stability was measured using deionized water and three different pH buffer solutions (at pH 1.2, 4.0, and 6.8) for release testing. A test method was performed in a manner in which 5 mg of each of the tenofovir disoproxil hemi-edisylate of the present invention and the tenofovir disoproxil fumarate as a control group was accurately weighed, completely dissolved in 1 mL of a mixture of acetonitrile and water (1:19), and then added with 9 mL of each of the above pH buffer solutions. The individual samples thus prepared were placed in a chamber at 30° C. and changes in the amounts thereof over time were quantified using HPLC.
# [2] = Evaluation of stability (stressed conditions) depending on generation of related substances, HPLC (USP); conditions: for related substance generated: FIG. 1c
# Procedure: In order to evaluate stability (stressed conditions), according to the ICH guidelines, tenofovir disoproxil edisylate of the present invention (Example 1: TDE) and tenofovir disoproxil fumarate (Comparative Example 1: TDF) as a control group were used, and analyzed using high-perfoiinance liquid chromatography (HPLC) as set forth in the U.S. Pharmacopeia (USP). The results are shown in Table 1 below (stressed conditions: 60±2° C.).
# The tenofovir disoproxil hemi-edisylate of the present invention (Example 1: TDE (hemi salt)), serving as a test group, and tenofovir disoproxil mono-edisylate (Comparative Example 2: TDE (mono salt)), serving as a control group, were evaluated for stability for 3 weeks in the same manner as in (1) above.
# [3] = Evaluation of saturation solubility; set-up: saturation solubility: unit not given here; conditions: for solubility: thermodynamic from solid
# Procedure: The saturation solubility of the tenofovir disoproxil hemi-edisylate of the present invention (Example 1) and the tenofovir disoproxil fumarate salt (Comparative Example 1) as a control group were evaluated.
# [4] = stressed conditions 60±2° C., 7 days
# [5] = stressed conditions 60±2° C., 14 days
# [6] = stressed conditions 60±2° C., 21 days
# [7] = stressed conditions 60±2° C., Initial
compound,measurement,setting,value
9-[(R)-2-[[bis[[(isopropoxycarbonyl)oxy]methoxy]phosphinyl]methoxy]propyl]adenine hemiedisylate [TDE],stability depending on changes in pH,[1],stability equal to that of a conventional tenofovir disoproxil fumarate product
same,stability under stressed conditions (in words),"[2]; stressed conditions 60±2° C., 3 weeks, versus control salt, listed as tenofovir disoproxil hemi-edisylate",very stable under stressed conditions compared to the disoproxil fumarate; also recorded: very stable under stressed conditions compared to the tenofovir disoproxil mono-edisylate
same,Related substances: Tenofovir disoproxil ethyl ester,[2]; [4],0.02%
same,Related substances: Tenofovir isopropyl isoproxil,[2]; [4],0.04%
same,Related substances: Tenofovir isoproxil monoester,[2]; [4],0.27%
same,Related substances: Tenofovir disoproxil ethyl ester,[2]; [5],0.01%
same,Related substances: Tenofovir isopropyl isoproxil,[2]; [5],0.04%
same,Related substances: Tenofovir isoproxil monoester,[2]; [5],0.30%
same,Related substances: Tenofovir disoproxil ethyl ester,[2]; [6],0.02%
same,Related substances: Tenofovir isopropyl isoproxil,[2]; [6],0.04%
same,Related substances: Tenofovir isoproxil monoester,[2]; [6],0.37%
same,Related substances: Tenofovir disoproxil ethyl ester,[2]; [7],0.01%
same,Related substances: Tenofovir isopropyl isoproxil,[2]; [7],0.04%
same,Related substances: Tenofovir isoproxil monoester,[2]; [7],0.26%
same,related substance generated,"[2]; stressed conditions, 3rd week",0.37
same,stability superior to that of tenofovir disoproxil mono-edisylate,"[2]; stressed conditions, 3rd week, related substance 0.37 vs 5.62",at least 15 times
same,saturation solubility,[3]; DW (Deionized Water),2200
same,saturation solubility,[3]; pH 1.2,2680
same,saturation solubility,[3]; pH 4.0,2280
same,saturation solubility,[3]; pH 6.8,2400
"CC(C)OC(=O)OCOP(=O)(CO[C@H](C)Cn1cnc2c(N)ncnc21)OCOC(=O)OC(C)C.O=C(O)/C=C/C(=O)O [TDF, 9-[2-(R)-[[bis[[(isopropoxycarbonyl)oxy]methoxy]phosphinoyl]methoxy]propyl]adenine fumaric acid (1:1)]",Related substances: Adenine,[2]; [4],0.01%
same,Related substances: Tenofovir isoproxil monoester,[2]; [4],0.79%
same,Related substances: Unspecified impurity-1,[2]; [4],0.01%
same,Related substances: Unspecified impurity-2,[2]; [4],0.09%
same,Related substances: Unspecified impurity-3,[2]; [4],0.03%
same,Related substances: Unspecified impurity-5,[2]; [4],0.21%
same,Related substances: Adenine,[2]; [5],0.01%
same,Related substances: Tenofovir isoproxil monoester,[2]; [5],1.26%
same,Related substances: Unspecified impurity-1,[2]; [5],0.05%
same,Related substances: Unspecified impurity-2,[2]; [5],0.27%
same,Related substances: Unspecified impurity-3,[2]; [5],0.04%
same,Related substances: Unspecified impurity-4,[2]; [5],0.04%
same,Related substances: Unspecified impurity-5,[2]; [5],0.63%
same,Related substances: Unspecified impurity-6,[2]; [5],0.07%
same,Related substances: Unspecified impurity-7,[2]; [5],0.42%
same,Related substances: Adenine,[2]; [6],0.01%
same,Related substances: Tenofovir isoproxil monoester,[2]; [6],1.81%
same,Related substances: Unspecified impurity-2,[2]; [6],0.18%
same,Related substances: Unspecified impurity-3,[2]; [6],0.03%
same,Related substances: Unspecified impurity-5,[2]; [6],0.21%
same,Related substances: Adenine,[2]; [7],0.01%
same,Related substances: Tenofovir isoproxil monoester,[2]; [7],0.42%
same,Related substances: Unspecified impurity-2,[2]; [7],0.03%
same,Related substances: Unspecified impurity-3,[2]; [7],0.02%
same,Related substances: Unspecified impurity-5,[2]; [7],0.05%
same,solubility,"[3]; aqueous buffer, pH 4.0",13.2 mg/mL
same,solubility,"[3]; pH 1.2, simulated gastric fluid",39.2 mg/mL
same,solubility,"[3]; pH 6.8, aqueous buffer",9.4 mg/mL
same,solubility,[3]; DW (Deionized Water),13.5 mg/mL
"CC(C)OC(=O)OCOP(=O)(COC(C)Cn1cnc2c(N)ncnc21)OCOC(=O)OC(C)C.O=S(=O)(O)CCS(=O)(=O)O (centres unmarked) [tenofovir disoproxil mono-edisylate, Tenofovir disoproxil mono-edisylate]",related substance generated,"[2]; stressed conditions, 3rd week",5.62
